The text below walks through data of patent US20250099448A1, “HETEROCYCLIC COMPOUNDS” (Hoffmann-La Roche Inc., priority 2022, published 2025).

For this assay, the target named is T1, MAGL protein (Homo sapiens, UniProt Q99685).
T1 sequence (Q99685 1-303): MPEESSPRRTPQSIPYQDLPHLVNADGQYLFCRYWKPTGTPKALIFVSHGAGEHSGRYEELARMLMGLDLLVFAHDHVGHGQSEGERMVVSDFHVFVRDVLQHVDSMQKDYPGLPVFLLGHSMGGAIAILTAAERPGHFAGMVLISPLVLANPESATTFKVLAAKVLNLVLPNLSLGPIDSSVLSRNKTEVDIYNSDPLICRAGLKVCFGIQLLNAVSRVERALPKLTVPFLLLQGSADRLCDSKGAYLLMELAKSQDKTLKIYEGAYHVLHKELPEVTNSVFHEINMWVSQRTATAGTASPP
Description: 2-AG assay: MAGL inhibitory activity by hydrolysis of 2-arachidonoylglycerol to arachidonic acid, followed by mass spectrometry. The settings on record: 8 μM 2-arachidonoylglycerol, 15 min preincubation, 30 min reaction at RT, RapidFire MS readout. Type of assay: biochemical. The essentials: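 MAGL was preincubated 15 min at RT with compound (12.5 to […], 3-fold steps) in 50 mM TRIS, 1 mM EDTA, 0.01% Tween-20, 2.5% DMSO. The reaction ran 30 min at RT with 8 μM 2-AG. Arachidonic acid was quantified by RapidFire SPE-MS/MS against a d8-arachidonic acid internal standard.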

The term IC50 denotes the concentration that gives 50% inhibition. Low readings indicate inhibition by little substance, high ones a need for much substance. Consider `O=C(N1CC2(CCC(NS(=O)(=O)c3cccc(OC(F)(F)F)c3)CC2)C1)N1CC2(CC(c3nnc(C4CC4)[nH]3)C2)C1` [compound 348], for which half-maximal inhibition (IC50) required 0.63 nM.

In turn, `O=C(N1CC(CCc2ccc(C(F)(F)F)cc2F)C1)N1CC2(CC(c3nc(C4(O)CC4)n[nH]3)C2)C1` [compound 349] displayed an IC50 of 2.48 nM.

In turn, `CS(=O)(=O)c1ccc(Cl)cc1OC1CCC2(CC1)CN(C(=O)N1CC3(CC(c4nnc(C5CC5)[nH]4)C3)C1)C2` [compound 350] returned an IC50 of 3.43 nM.

Compound `O=C(N1CC2(CCC(Nc3cnc(C(F)(F)F)cn3)CC2)C1)N1CC2(CC(c3nnc(C4CC4)[nH]3)C2)C1` [compound 351] came in with an IC50 of 3.59 nM.

For the compound `O=C(N1CC2(CC(CNCC3(C(F)(F)F)CC3)C2)C1)N1CC2(CC(c3nnc(C4CC4)[nH]3)C2)C1` [compound 352], the IC50 is 3.94 nM.

With `O=C(N1CC(COc2ccc(F)cc2Cl)C1)N1CC2(CC(c3nnc(C4CC4)[nH]3)C2)C1` [compound 353], the IC50 came out at 5.12 nM.

As to `O=C(N1CC2(CC(CNC3(C(F)(F)F)COC3)C2)C1)N1CC2(CC(c3nnc(C4CC4)[nH]3)C2)C1` [compound 354], half-maximal inhibition (IC50) required 5.39 nM.

`CS(=O)(=O)c1cc(F)ccc1OC1CCC2(CC1)CN(C(=O)N1CC3(CC(c4nnc(C5CC5)[nH]4)C3)C1)C2` [compound 355] returned an IC50 of 8.86 nM.

Take `O=C(N1CC2(CC(c3nnc(C4CC4)[nH]3)C2)C1)N1CC2(CC(S(=O)(=O)c3ccc(F)cc3Cl)C2)C1` [compound 356]: inhibition was half-maximal at 11.7 nM (IC50).

The compound `CC1(NCC2CC3(C2)CN(C(=O)N2CC4(CC(c5nnc(C6CC6)[nH]5)C4)C2)C3)CS(=O)(=O)C1` [compound 357] came in with an IC50 of 25.6 nM.

Compound `O=C(N1CC2(CCC(NS(=O)(=O)C3CCC(F)(F)CC3)CC2)C1)N1CC2(CC(c3nnc(C4CC4)[nH]3)C2)C1` [compound 358] returned an IC50 of 26.3 nM.

With `O=C(NCC1(C(F)(F)F)CC1)C1CC2(C1)CN(C(=O)N1CC3(CC(c4nnc(C5CC5)[nH]4)C3)C1)C2` [compound 359], half-maximal inhibition (IC50) required 28.4 nM.

With `O=C(N1CC(C2CN(Cc3ccc(C(F)(F)F)cc3)C2)C1)N1CC2(CC(c3nnc(C4CC4)[nH]3)C2)C1` [compound 360], it took 32 nM to reach half-maximal inhibition (IC50).

In the case of `O=C(N1CC(Cc2ccc(Cl)cc2)C1)N1CC2(CC(c3nnc(C4(O)CC4)[nH]3)C2)C1` [compound 361], the IC50 stood at 45.6 nM.

Take `NC(=O)C(c1ccc(F)cc1)C1CCN(C(=O)N2CC3(CC(c4nnc(C5CC5)[nH]4)C3)C2)CC1` (centres unmarked) [compound 362]: the IC50 turned out to be 106 nM.

`O=C(N1C[C@H]2CN(Cc3ccccc3)C[C@H]2C1)N1CC2(CC(c3nnc(C4CC4)[nH]3)C2)C1` [compound 363] showed an IC50 of 244 nM.

On to `O=C(N1CC2(CC(CNC3CS(=O)(=O)C3)C2)C1)N1CC2(CC(c3nnc(C4CC4)[nH]3)C2)C1` [compound 364], for which the IC50 came out at 377 nM.

In turn, `CC(C)(C)n1nnc(C2(c3ccc(C4CN(C(=O)N5CC6(CC(c7nnc(C8CC8)[nH]7)C6)C5)C4)cc3)CC2)n1` [compound 365] displayed an IC50 of 0.06 nM.

On to `CC(C)(Oc1ccc(C2CN(C(=O)N3CC4(CC(c5nnc(C6CC6)[nH]5)C4)C3)C2)cc1)C(F)(F)F` [compound 366], for which 0.08 nM corresponded to half-maximal inhibition (IC50).

In the case of `O=C(N1CC(c2ccc(Oc3ccccc3Cl)nc2)C1)N1CC2(CC(c3nnc(C4CC4)[nH]3)C2)C1` [compound 367], half-maximal inhibition (IC50) was put at 0.15 nM.

`CC(C)(Oc1ccc(C2CN(C(=O)N3CC4(CC(c5nnc(C6(O)CC6)[nH]5)C4)C3)C2)cc1)C(F)(F)F` [compound 368] showed an IC50 of 0.17 nM.

For `O=C(N1CC(c2ccc(S(=O)(=O)c3ccccc3)cc2)C1)N1CC2(CC(c3nnc(C4CC4)[nH]3)C2)C1` [compound 371], the IC50 is 0.4 nM.

On to `COC(=O)C1(c2ccc(C3CN(C(=O)N4CC5(CC(c6nnc(C7CC7)[nH]6)C5)C4)C3)cc2)CC1` [compound 372], for which inhibition was half-maximal at 0.57 nM (IC50).

`O=C(N1CC(c2ccc(Oc3ccccc3Cl)nc2)C1)N1CC2(CC(c3nnc(C4(O)CC4)[nH]3)C2)C1` [compound 374] had an IC50 of 1.61 nM.

For the compound `O=C(N1CC(c2ccc(OCC3(C(F)(F)F)CC3)cc2)C1)N1CC2(CC(c3nnc(C4(O)CC4)[nH]3)C2)C1` [compound 375], it took 1.89 nM to reach half-maximal inhibition (IC50).

On to `N#CC1(c2ccc(C3CN(C(=O)N4CC5(CC(c6nnc(C7CC7)[nH]6)C5)C4)C3)cc2)CC1` [compound 376], for which the IC50 is 2.22 nM.

The compound `O=C(N1CC(c2ccc(-c3nnc(C4(C(F)(F)F)CC4)[nH]3)cc2)C1)N1CC2(CC(c3nc(C4CC4)n[nH]3)C2)C1` [compound 377] gave an IC50 of 4.29 nM.

The compound `O=C(N1CC(c2ccc(Oc3ccccc3Cl)nn2)C1)N1CC2(CC(c3nnc(C4CC4)[nH]3)C2)C1` [compound 378] returned an IC50 of 16.6 nM.

For `O=C(N1CC(c2ccc(C3(c4nnn[nH]4)CC3)cc2)C1)N1CC2(CC(c3nnc(C4CC4)[nH]3)C2)C1` [compound 379], it took 61 nM to reach half-maximal inhibition (IC50).

Consider `NS(=O)(=O)c1ccc(C2CN(C(=O)N3CC4(CC(c5nnc(C6CC6)[nH]5)C4)C3)C2)cc1` [compound 380], for which the IC50 amounted to 64.2 nM.

`CP(C)(=O)Cc1ccc(C2CN(C(=O)N3CC4(CC(c5nnc(C6CC6)[nH]5)C4)C3)C2)cc1` [compound 381] showed an IC50 of 0.69 nM.

For the compound `CC(C)c1ccc(N(C)c2ccc(C3CN(C(=O)N4CC5(CC(c6nnc(C7CC7)[nH]6)C5)C4)C3)cn2)cc1` [compound 382], the IC50 is 21.4 nM.

Consider `CN(c1ccccc1)c1ccc(C2CN(C(=O)N3CC4(CC(c5nnc(C6CC6)[nH]5)C4)C3)C2)cn1` [compound 383], for which 2.09 nM corresponded to half-maximal inhibition (IC50).

The compound `NC(=O)C1CCCCN1c1ccc(C2CN(C(=O)N3CC4(CC(c5nnc(C6CC6)[nH]5)C4)C3)C2)cc1` (centres unmarked) [compound 384] showed an IC50 of 2.64 nM.

For `NC(=O)C1CC(F)(F)CCN1c1ccc(C2CN(C(=O)N3CC4(CC(c5nnc(C6CC6)[nH]5)C4)C3)C2)cc1` (centres unmarked) [compound 385], the IC50 was 3.76 nM.

Regarding `NC(=O)C1CCCN1c1ccc(C2CN(C(=O)N3CC4(CC(c5nnc(C6CC6)[nH]5)C4)C3)C2)cc1` (centres unmarked) [compound 386], the IC50 is 246 nM.

`CC(C)(C)c1ccc(C2CN(C(=O)N3CC4(CC(c5nc(C6CC6)n[nH]5)C4)C3)C2)cn1` [compound 399] gave an IC50 of 2.63 nM.

The compound `O=C(N1CC2(CC(Cc3cc(C(F)(F)F)ncn3)C2)C1)N1CC2(CC(c3nc(C4CC4)n[nH]3)C2)C1` [compound 400] came in with an IC50 of 1.17 nM.

In turn, `O=C(N1CC2(CC(Cc3cnn(C(F)(F)F)c3)C2)C1)N1CC2(CC(c3nc(C4CC4)n[nH]3)C2)C1` [compound 401] registered an IC50 of 0.4 nM.

In turn, `O=C(N1CC2(CC(Cc3ccnc(C(F)(F)F)n3)C2)C1)N1CC2(CC(c3nc(C4CC4)n[nH]3)C2)C1` [compound 402] had an IC50 of 0.95 nM.

As for `O=C(N1CC2(CC(Cc3nccc(C(F)(F)F)n3)C2)C1)N1CC2(CC(c3nc(C4CC4)n[nH]3)C2)C1` [compound 403], the IC50 was 0.75 nM.

For the compound `O=C(N1CC2(CC(Cc3cc(C(F)(F)F)n[nH]3)C2)C1)N1CC2(CC(c3nc(C4CC4)n[nH]3)C2)C1` [compound 404], the IC50 turned out to be 0.29 nM.

`O=C(N1CC2(CC(Cc3cn(C4CC4)nc3C(F)(F)F)C2)C1)N1CC2(CC(c3nc(C4CC4)n[nH]3)C2)C1` [compound 405] gave an IC50 of 0.57 nM.

With `O=C(N1CC2(CC(Cn3cc(C(F)(F)F)ccc3=O)C2)C1)N1CC2(CC(c3nc(C4CC4)n[nH]3)C2)C1` [compound 406], the IC50 came out at 1.75 nM.

Compound `O=C(N1CC2(CC(c3nc(C4CC4)n[nH]3)C2)C1)N1CC2(CC(c3nc(C4CC4)n[nH]3)C2)C1` [compound 407] yielded an IC50 of 9.24 nM.

As for `Cc1cc(C(F)(F)F)nn1-c1ccc(C2CN(C(=O)N3CC4(CC(c5nnc(C6(O)CC6)[nH]5)C4)C3)C2)cc1` [compound 408], the IC50 is 1.46 nM.

In turn, `O=C(N1CC2(CC(Cn3nccc3C(F)(F)F)C2)C1)N1CC2(CC(c3nc(C4CC4)n[nH]3)C2)C1` [compound 410] gave an IC50 of 0.14 nM.

`O=C(N1CC2(CC(c3ccc(S(=O)(=O)C(F)(F)F)cc3)C2)C1)N1CC2(CC(c3nnc(C4CC4)[nH]3)C2)C1` [compound 413]: half-maximal inhibition (IC50) was put at 0.34 nM.

For `CC(C)(C)c1ncc(CN2CC3(C2)CN(C(=O)N2CC4(CC(c5nc(C6CC6)n[nH]5)C4)C2)C3)s1` [compound 415], the IC50 worked out at 4.43 nM.

In turn, `O=C(N1CC2(CC(Cn3cc(C(F)(F)F)ccc3=O)C2)C1)N1CC2(CC(c3nc(C4(O)CC4)n[nH]3)C2)C1` [compound 417] returned an IC50 of 6.2 nM.

Compound `O=C(N1CCC(C23CC(c4nnc(C5(C(F)(F)F)CC5)o4)(C2)C3)CC1)N1CC2(CC(c3nc(C4CC4)n[nH]3)C2)C1` [compound 418] displayed an IC50 of 192 nM.

In turn, `O=C(N1CC(C23CC(c4ccc(S(=O)(=O)C(F)(F)F)cc4)(C2)C3)C1)N1CC2(CC(c3nc(C4(O)CC4)n[nH]3)C2)C1` [compound 419] showed an IC50 of 0.5 nM.

`O=C(N1CC2(CC(Cc3ccc(S(=O)(=O)C(F)(F)F)cc3)C2)C1)N1CC2(CC(c3nc(C4CC4)n[nH]3)C2)C1` [compound 420]: the midpoint of inhibition, the IC50, lay at 0.02 nM.

Turning to `O=C(N1CC2(CCC(S(=O)(=O)c3cccc(C(F)(F)F)c3)CC2)C1)N1CC2(CC(c3nc(C4(O)CC4)n[nH]3)C2)C1` [compound 421], the IC50 was 50.4 nM.

In the case of `O=C(N1CC(C23CC(c4nnc(C5(C(F)(F)F)CC5)o4)(C2)C3)C1)N1CC2(CC(c3nc(C4CC4)n[nH]3)C2)C1` [compound 422], half-maximal inhibition (IC50) was put at 14.3 nM.

Consider `O=C(N1CC2(CC(Oc3nc(C(F)(F)F)cs3)C2)C1)N1CC2(CC(c3nc(C4CC4)n[nH]3)C2)C1` [compound 423], for which half-maximal inhibition (IC50) required 1.11 nM.
